Source: ChEMBL document CHEMBL1150845, “Two new constituents of Isodon excisus and their evaluation in an apoptosis inhibition assay” (J Nat Prod, 2001)
≈ marks a conversion by molar mass, not a printed value.

Tested on: U-937
Experiment: Inhibition of etoposide-induced apoptosis in human U937 cells assessed as inhibition of caspase 3 induction after 7 hrs
Type: functional, cell-based
Details: U-937, 7 h

IC50 [µg/mL]	SMILES
10.2 (≈ 29.7 µM)	COc1cc(/C=C/C(=O)NC[C@@H](OC)c2ccc(O)cc2)ccc1O
52.4 (≈ 140 µM)	COC(=O)C[C@H](OC(=O)/C=C/c1ccc(O)c(O)c1)c1ccc(O)c(O)c1

SMILES	IC50 [µg/mL]
S=C(S)N1CCCC1 [PYRROLIDINE DITHIOCARBAMATE]	8.3 (≈ 56.4 µM)
